PubChem BioAssay AID1963450 (Molecular Pharmacology Branch, DTP, NCI, 2024)

System: 556581-035-R-J1-PDC complex spheroid growth
Assay: Anticancer human tumor 556581-035-R-J1-PDC patient-derived ovarian carcinoma cell line growth inhibition [Asc]
Details: for IC50: curve of first compound; for viability, T/C: stronger effect = lower value; active = viability on the fitted dose curve at most 10% of control; inactive = the rest
Procedure, shortened: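 Complex solid-tumor spheroids incorporating human endothelial and mesenchymal stem cells received single agents or combinations over half-log dilution ranges anchored to clinical Cmax.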
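Also: spheroids exposed to agents for 7 days before viability read.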

O=C(c1cc(Cc2n[nH]c(=O)c3ccccc23)ccc1F)N1CCN(C(=O)C2CC2)CC1 + CCN1C(C(=O)NC23CCC(C(=O)O)(CC2)CC3)C(c2cccc(Cl)c2F)C2(C(=O)Nc3cc(Cl)ccc32)C12CCCCC2
inactive: viability, T/C (second compound 0.03 µM, first compound 0.0316 µM) 105% | viability, T/C (second compound 0.03 µM, first compound 0.1 µM) 98% | viability, T/C (second compound 0.03 µM, first compound 0.316 µM) 85.5% | viability, T/C (second compound 0.03 µM, first compound 1 µM) 89.9% | viability, T/C (second compound 0.03 µM, first compound 3.16 µM) 86.7% | viability, T/C (second compound 0.03 µM, first compound 10 µM) 70.6% | viability, T/C (second compound 0.0949 µM, first compound 0.0316 µM) 106% | viability, T/C (second compound 0.0949 µM, first compound 0.1 µM) 96.2% | viability, T/C (second compound 0.0949 µM, first compound 0.316 µM) 94% | viability, T/C (second compound 0.0949 µM, first compound 1 µM) 93.7% | viability, T/C (second compound 0.0949 µM, first compound 3.16 µM) 87.9% | viability, T/C (second compound 0.0949 µM, first compound 10 µM) 77% | viability, T/C (second compound 0.3 µM, first compound 0.0316 µM) 104% | viability, T/C (second compound 0.3 µM, first compound 0.1 µM) 97.2% | viability, T/C (second compound 0.3 µM, first compound 0.316 µM) 99.2% | viability, T/C (second compound 0.3 µM, first compound 1 µM) 97.1% | viability, T/C (second compound 0.3 µM, first compound 3.16 µM) 73.3% | viability, T/C (second compound 0.3 µM, first compound 10 µM) 79.2% | viability, T/C (second compound 0.949 µM, first compound 0.0316 µM) 89.9% | viability, T/C (second compound 0.949 µM, first compound 0.1 µM) 92.6% | viability, T/C (second compound 0.949 µM, first compound 0.316 µM) 103% | viability, T/C (second compound 0.949 µM, first compound 1 µM) 86.1% | viability, T/C (second compound 0.949 µM, first compound 3.16 µM) 79.3% | viability, T/C (second compound 0.949 µM, first compound 10 µM) 83.6% | viability, T/C (second compound 3 µM, first compound 0.0316 µM) 97.5% | viability, T/C (second compound 3 µM, first compound 0.1 µM) 81.8% | viability, T/C (second compound 3 µM, first compound 0.316 µM) 87.5% | viability, T/C (second compound 3 µM, first compound 1 µM) 86.8% | viability, T/C (second compound 3 µM, first compound 3.16 µM) 84.8% | viability, T/C (second compound 3 µM, first compound 10 µM) 65.9%
> 10 µM: IC50 (second compound 0.03 µM) | IC50 (second compound 0.0949 µM) | IC50 (second compound 0.3 µM) | IC50 (second compound 0.949 µM) | IC50 (second compound 3 µM)

CCN1C(C(=O)NC23CCC(C(=O)O)(CC2)CC3)C(c2cccc(Cl)c2F)C2(C(=O)Nc3cc(Cl)ccc32)C12CCCCC2 (stereo not given) + CNC(C)C(=O)NC1CN(S(=O)(=O)c2cccc(S(=O)(=O)N3CCC4CCC(C(=O)NC(c5ccccc5)c5ccccc5)N4C(=O)C(NC(=O)C(C)NC)C3)c2)CCC2CCC(C(=O)NC(c3ccccc3)c3ccccc3)N2C1=O
inactive: viability, T/C (second compound 0.01 µM, first compound 0.00949 µM) 82.8% | viability, T/C (second compound 0.01 µM, first compound 0.03 µM) 98.8% | viability, T/C (second compound 0.01 µM, first compound 0.0949 µM) 97.1% | viability, T/C (second compound 0.01 µM, first compound 0.3 µM) 86.2% | viability, T/C (second compound 0.01 µM, first compound 0.949 µM) 92.2% | viability, T/C (second compound 0.01 µM, first compound 3 µM) 86.9% | viability, T/C (second compound 0.0316 µM, first compound 0.00949 µM) 83.2% | viability, T/C (second compound 0.0316 µM, first compound 0.03 µM) 85.7% | viability, T/C (second compound 0.0316 µM, first compound 0.0949 µM) 82.3% | viability, T/C (second compound 0.0316 µM, first compound 0.3 µM) 87.8% | viability, T/C (second compound 0.0316 µM, first compound 0.949 µM) 91.2% | viability, T/C (second compound 0.0316 µM, first compound 3 µM) 102% | viability, T/C (second compound 0.1 µM, first compound 0.00949 µM) 79% | viability, T/C (second compound 0.1 µM, first compound 0.03 µM) 88.9% | viability, T/C (second compound 0.1 µM, first compound 0.0949 µM) 84.3% | viability, T/C (second compound 0.1 µM, first compound 0.3 µM) 67.7% | viability, T/C (second compound 0.1 µM, first compound 0.949 µM) 90% | viability, T/C (second compound 0.1 µM, first compound 3 µM) 90.3% | viability, T/C (second compound 0.316 µM, first compound 0.00949 µM) 77.1% | viability, T/C (second compound 0.316 µM, first compound 0.03 µM) 78.9% | viability, T/C (second compound 0.316 µM, first compound 0.0949 µM) 77.6% | viability, T/C (second compound 0.316 µM, first compound 0.3 µM) 84.9% | viability, T/C (second compound 0.316 µM, first compound 0.949 µM) 73.4% | viability, T/C (second compound 0.316 µM, first compound 3 µM) 69.7% | viability, T/C (second compound 1 µM, first compound 0.00949 µM) 71.5% | viability, T/C (second compound 1 µM, first compound 0.03 µM) 72.5% | viability, T/C (second compound 1 µM, first compound 0.0949 µM) 65.9% | viability, T/C (second compound 1 µM, first compound 0.3 µM) 68.4% | viability, T/C (second compound 1 µM, first compound 0.949 µM) 68% | viability, T/C (second compound 1 µM, first compound 3 µM) 72.4%
> 3 µM: IC50 (second compound 0.01 µM) | IC50 (second compound 0.0316 µM) | IC50 (second compound 0.1 µM) | IC50 (second compound 0.316 µM) | IC50 (second compound 1 µM)

CCN1CCN(Cc2ccc(Nc3ncc(F)c(-c4cc(F)c5nc(C)n(C(C)C)c5c4)n3)nc2)CC1 + CNC(C)C(=O)NC1CN(S(=O)(=O)c2cccc(S(=O)(=O)N3CCC4CCC(C(=O)NC(c5ccccc5)c5ccccc5)N4C(=O)C(NC(=O)C(C)NC)C3)c2)CCC2CCC(C(=O)NC(c3ccccc3)c3ccccc3)N2C1=O
0.318 µM: IC50 (second compound 0.316 µM)
> 1 µM: IC50 (second compound 0.01 µM) | IC50 (second compound 0.0316 µM)
inactive: viability, T/C (second compound 0.01 µM, first compound 0.00316 µM) 94.7% | viability, T/C (second compound 0.01 µM, first compound 0.01 µM) 97.4% | viability, T/C (second compound 0.01 µM, first compound 0.0316 µM) 67.4% | viability, T/C (second compound 0.01 µM, first compound 0.1 µM) 73.6% | viability, T/C (second compound 0.01 µM, first compound 0.316 µM) 78.5% | viability, T/C (second compound 0.01 µM, first compound 1 µM) 72.2% | viability, T/C (second compound 0.0316 µM, first compound 0.00316 µM) 87.5% | viability, T/C (second compound 0.0316 µM, first compound 0.01 µM) 88.7% | viability, T/C (second compound 0.0316 µM, first compound 0.0316 µM) 83% | viability, T/C (second compound 0.0316 µM, first compound 0.1 µM) 85.7% | viability, T/C (second compound 0.0316 µM, first compound 0.316 µM) 75.5% | viability, T/C (second compound 0.0316 µM, first compound 1 µM) 56.2% | viability, T/C (second compound 0.1 µM, first compound 0.00316 µM) 73.6% | viability, T/C (second compound 0.1 µM, first compound 0.01 µM) 79.3% | viability, T/C (second compound 0.1 µM, first compound 0.0316 µM) 78.8% | viability, T/C (second compound 0.1 µM, first compound 0.1 µM) 65.4% | viability, T/C (second compound 0.1 µM, first compound 0.316 µM) 51.6% | viability, T/C (second compound 0.1 µM, first compound 1 µM) 44% | viability, T/C (second compound 0.316 µM, first compound 0.00316 µM) 84.3% | viability, T/C (second compound 0.316 µM, first compound 0.01 µM) 82.8% | viability, T/C (second compound 0.316 µM, first compound 0.0316 µM) 86.5% | viability, T/C (second compound 0.316 µM, first compound 0.1 µM) 57.8% | viability, T/C (second compound 0.316 µM, first compound 0.316 µM) 56% | viability, T/C (second compound 0.316 µM, first compound 1 µM) 37.6% | viability, T/C (second compound 1 µM, first compound 0.00316 µM) 78.2% | viability, T/C (second compound 1 µM, first compound 0.01 µM) 82.8% | viability, T/C (second compound 1 µM, first compound 0.0316 µM) 82.7% | viability, T/C (second compound 1 µM, first compound 0.1 µM) 56.2% | viability, T/C (second compound 1 µM, first compound 0.316 µM) 51.7% | viability, T/C (second compound 1 µM, first compound 1 µM) 33%
0.251 µM: IC50 (second compound 1 µM)
0.339 µM: IC50 (second compound 0.1 µM)
